According to patent US5439930A, “Biologically active n-acylprolydipeptides having antiamnestic, antihypoxic and anorexigenic effects” (Russian-American Institute for New Drug Development, priority 1992, dated 1995):
Where a SMILES comes first, the peptide text is derived from it. The star is where a group is joined. PhAc = O=C(Cc1ccccc1)*

Experiments:
[1] = system: active avoidance learning, rats; assay: Active avoidance learning in shuttle-box test; format: in vivo
Text: (§1) The influence of Compound I on the active avoidance learning was studied in shuttle-box test (Ugo Basile, Italy). The conditioned reflex of active avoidance had been developed for 5 days with 50 daily trials for each rat. The learning task consisted in the rats' avoiding of the electric shock applied through the cage floor directly after sound. Rats could avoid the shock by moving into another compartment of the cage, but only while the sound was present (3 sec.).

[2] = system: damaged stable active avoidance reaction, rats; assay: Conditional active avoidance reflex after damage (simultaneous sound and footshock); format: in vivo
Text: as §1
In other experiments, stable active avoidance reaction was damaged by simultaneously switching of sound and electrical footshock for 5 trials. Compound I prevented the impairment of avoidance (Table 6).

[3] = system: lobectomized rats; assay: Active avoidance after frontal lobectomy; format: in vivo; settings: 0.1 mg/kg daily
Protocol: (§2) The impairment of learning and memory was achieved also by frontal lobectomy, which was performed after passive avoidance or active avoidance learning. Compound I (0.1 mg/kg) was administered beginning from the first post-operational day and lasting for 9 days. The testing was performed at 4th and 9th days. […] The frontal lobectomy has as a consequence the decrease of the latency of the entering of the dark compartment; Compound I restored the passive avoidance reaction (Table 8).
Compound I increased the percentage of the animals performing the active avoidance reaction and the coefficient of the preserving (Table 8).

[4] = system: 24-month Wistar rats; assay: Locomotor activity and habituation in aged rats (Optovarimex); format: in vivo
Protocol: (§3) The influence of Compound I on age-related mental decline was studied in experiments on 24-month Wistar rats. The substance was administered chronically in the dose of 0.1 mg/kg/day during 24 days, intraperitoneally before the testing and 14 days during testing.
Registration of the locomotor activity in the Optovarimex multichannel analyzer has shown that Compound I increased the initial horizontal activity being administered chronically. […] This test is suitable for the study of nootropics. In the control group the coefficient of the habituation was 0.29.

[5] = system: undertraining of the passive avoidance reflex, rats; assay: Passive avoidance with undertraining, different regimes of administration; format: in vivo; settings: 0.5 mg/kg i.p.
[6] = system: rat's offspring after prenatal alcoholization; assay: Open field locomotor activity and habituation of offspring after prenatal alcoholization; format: in vivo, rats
Protocol: (§4) The cognitive impairment in the rat's offspring was provoked by prenatal alcoholization or prenatal hypoxia. Prenatal alcoholization was achieved by peroral administration of 5 g/kg/day (25% solution) ethanol to pregnant female rats during whole pregnancy. To achieve prenatal hypoxia the rats on the 15th day of pregnancy were placed into hypobaric barometric chamber (the "elevating" up 8500 m altitude; exposition for 2 hours).
(§5) The treatment of the offspring was performed from 8th day to 20th day. Compound I was administered in the dose of 0.1 mg/kg/day subcutaneously. The testing was performed on two-month old rats.
Chronic postnatal administration of Compound I restored the normal course of the habituation (Table 10).

[7] = system: phenazepam withdrawn male albino rats; assay: Pentylenetetrazol kindling seizures during phenazepam withdrawal; format: in vivo
Protocol: The influence of Compound I on withdrawal syndrome caused by the interruption of chronic administration of benzodiazepine tranquilizer phenazepam (T. A. Voronina et al., In Fenazepam; A. V. Bogatsky, Ed.; Naukova dumka Publishers: Kiev, 1982; pp. 67-169) was studied in experiments on male albino rats weighing 190-200 g at the beginning and 300-350 g at the end of the experiment.
Phenazepam (2 mg/kg intraperitoneally) or saline (control group of rats) were given once daily for 57 days. The withdrawal syndrome occurred 24-72 hours after the last injection. The withdrawal syndrome in rats consisted in "anxiogenic-like" state aggressiveness and accelerated development of kindled seizures caused by pentylentetrazol. Compound I was administered to the withdrawn rats in doses of 0.5 mg/kg intraperitoneally 15 minutes prior to testing.
The seizure reactions of rats were studied using chemical kindling (C.R. Mason et al., Epilepsia, 13, 663-674 (1972); R. M. Post et al., Handbook of Biological Psychiatry, Part IV, No. 7, Marcel-Dekker (1981) pp. 609-651) produced by small doses of pentylene-tetrazol (35 mg/kg, intraperitoneally) administrated 24, 48 and 72 h after phenazepam withdrawal. The degree of seizures was evaluated by 4 points: tremor (1 point); jerk (2 point); clonic seizures (3 points); tonic seizures and death (4 points).
Our experiments pointed out that the pentylenetetrazol seizures were more pronounced in phenazepam withdrawn rats than in the control one. Compound I diminished the degree of kindling provoked by pentylenetetrazol (Table 14).

[8] = system: lobectomized rats; assay: Passive avoidance after frontal lobectomy; format: in vivo; settings: 9th day, 0.1 mg/kg for 9 days
Protocol: as §2

[9] = system: 24-month Wistar rats; assay: Passive avoidance retention in aged rats; format: in vivo
Protocol: as §3
Chronic administration of Compound I facilitated the retention tested 24 hours and especially 14 days after learning in passive avoidance test (Table 11). It is evident from these experiments that Compound I is able to improve amnestic function in the old rats.

[10] = system: rat's offspring damaged by prenatal hypoxia; assay: Active avoidance learning of offspring after prenatal hypoxia; format: in vivo, rats
Protocol: as §4, §5
It has been established that both kinds of damage (alcoholization, hypoxia) caused learning disorders in active avoidance test. Early postnatal administration of Compound I restored learning activity (Table 9).

[11] = system: outbred male mice; assay: Gross behavior and acute toxicity; format: in vivo
Protocol: Compound I was checked for gross behavior and acute toxicity in outbred male mice (18-22 g).
In the dose of 1000 mg/kg compound I caused excitement in 50% of animals. In the dose of 5000 mg/kg i.p. compound I caused death in 50% of animals.

CCOC(=O)CNC(=O)[C@@H]1CCCN1C(=O)Cc1ccccc1 [Compound I, N-phenacetyl-L-prolylglycine ethyl ester] (PhAc-Pro-Gly-OEt)
Percentage of the rats reached the stable avoidance ([1]; day 1 of learning, 0.1 mg/kg daily i.p. 14 days before and during learning): 0 | Percentage of the rats reached the stable avoidance ([1]; day 2 of learning, 0.1 mg/kg daily i.p.): 15 | Percentage of the rats reached the stable avoidance ([1]; day 3 of learning, 0.1 mg/kg daily i.p.): 43 | Percentage of the rats reached the stable avoidance ([1]; day 4 of learning, 0.1 mg/kg daily i.p.): 57 | Percentage of the rats reached the stable avoidance ([1]; day 5 of learning, 0.1 mg/kg daily i.p.): 67 | Percentage of avoidances during 5 trials ([2]; after damage, 1-5th trials): 86.7 | Percentage of avoidances during 5 trials ([2]; after damage, 6-10th trials): 88.9 ± 4.8 | Percentage of avoidances during 5 trials ([2]; after damage, 11-15th trials): 97.8 | Percentage of avoidances during 5 trials ([2]; before damage): 88.9 ± 4.8 | %% of avoiding rats ([3]; 4th day): 42.8% | Active avoidance test - coeff. of preserving ([3]; 4th day): 28.1% | %% of avoiding rats ([3]; 9th day): 57.1% | Active avoidance test - coeff. of preserving ([3]; 9th day): 38.1% | Coefficient of habituation (ratio - 5th min/1st min) ([4]; 0.1 mg/kg/day i.p. chronically): 0.03 | Locomotor activity (counts) ([4]; 1st min. of registration, 0.1 mg/kg/day i.p. chronically): 422 counts | Locomotor activity (counts) ([4]; 5th min. of registration): 13 counts | Mnestic activity (Ma), administration 15 min. before retrieval [5]: 32% | Mnestic activity (Ma), administration 15 min. before trial [5]: 23% | Mnestic activity (Ma), administration immediately after trial [5]: 14.0% | Number of horizontal movements ([6]; day 1 of observation, chronic postnatal administration): 8.2 | Number of horizontal movements ([6]; day 5 of observation): 3.7 | Coefficient of Habituation ([6]; open field): 0.45 | Seizure Reactions in Points (M ± m) ([7]; 24 h after phenazepam withdrawal, pentylenetetrazol 35 mg/kg i.p., 0.5 mg/kg i.p.): 0.25 ± 0.12 points | Seizure Reactions in Points (M ± m) ([7]; 48 h after phenazepam withdrawal): 0.87 ± 0.1 points | Seizure Reactions in Points (M ± m) ([7]; 72 h after phenazepam withdrawal): 0.5 ± 0.24 points | Passive avoidance test (latency, sec) [8]: 141.2 s | Passive avoidance test (latency, sec) ([9]; 24 hours after learning): 128 s | Passive avoidance test (latency, sec) ([9]; 14 days after learning): 132 s | Rats with reflex of active avoidance ([10]; day 1 of learning, 0.1 mg/kg/day s.c. from 8th to 20th day): 0% | Rats with reflex of active avoidance ([10]; day 2 of learning): 0% | Rats with reflex of active avoidance ([10]; day 3 of learning): 25% | Rats with reflex of active avoidance ([10]; day 4 of learning): 68% | Rats with reflex of active avoidance ([10]; day 5 of learning): 88% | Stimulating effect of amphetamine ([11]; 25 mg/kg): diminished the stimulating effect of amphetamine | Rectal temperature ([11]; 1-10 mg/kg i.p.): did not change rectal temperature | Spontaneous motor activity ([11]; 1-10 mg/kg i.p.): neither stimulated nor depressed the spontaneous motor activity | Stimulating effect of amphetamine on motor activity ([11]; 1-10 mg/kg i.p.): did not enhance the stimulating effect of amphetamine | Excitement, % of animals ([11]; 1000 mg/kg): 50% | Death, % of animals ([11]; 5000 mg/kg i.p.): 50% | Lethality at 24 hours ([11]; 500-3000 mg/kg i.p.): did not cause lethality | General condition (gross behavior) ([11]; up to the dose of 500 mg/kg): did not disturb the general condition | Motor coordination (rota rod test) ([11]; up to the dose of 500 mg/kg): did not change motor coordination
